Results on five molecules are retold here after ChEMBL document CHEMBL1641518, “Synthesis and biological evaluation of tubulysin D analogs related to stereoisomers of tubuvaline” (Bioorg Med Chem Lett, 2011).

Where only a bound is given, the exact number is not on record here.

Assay [1] has as its system A549. Description: Cytotoxicity against human A549 cells after 72 hrs by MTT assay. The settings on record: A549, 72 h. Type of assay: functional, cell-based.
In assay [2] the test system is HL-60. As to the kind of experiment: Cytotoxicity against human HL60 cells after 72 hrs by MTT assay. Particulars: HL-60, 72 h. Type of assay: functional, cell-based.
The target of assay [3] is Tubulin (Sus scrofa, UniProt P02554+P02550). As to the kind of experiment: Inhibition of porcine brain tubulin polymerization by microtubule assembly assay.
Assay [4] concerns HCT-116. As to the kind of experiment: Cytotoxicity against human HCT116 cells after 72 hrs by MTT assay. The assay is classed as functional, cell-based. The settings on record: HCT-116, 72 h. On the technique in general: Formazan colour is commonly taken as a measure of viable cells.
Assay [5] deals with MCF7. As to the kind of experiment: Cytotoxicity against human MCF7 cells after 72 hrs by MTT assay. Type of assay: functional, cell-based. The settings on record: MCF7, 72 h.

In general, IC50 refers to the point on the concentration scale where inhibition reaches its midpoint. For the molecule `CC[C@H](C)[C@H](NC(=O)[C@H]1CCCCN1C)C(=O)N[C@@H](C[C@@H](OC(C)=O)c1nc(C(=O)N[C@@H](Cc2ccccc2)C[C@H](C)C(=O)O)cs1)C(C)C` [13-EPI-TUBULYSIN D], the IC50 in assay [1] was 1200 nM; in assay [2], 98 nM; in assay [3] it was 1700 nM; in assay [4] it was 920 nM; in assay [5], 240 nM.
For the molecule `CC[C@]1(O)C[C@@H]2CN(CCc3c([nH]c4ccccc34)[C@@](C(=O)OC)(c3cc4c(cc3OC)N(C)[C@H]3[C@@](O)(C(=O)OC)[C@H](OC(C)=O)[C@]5(CC)C=CCN6CC[C@]43[C@@H]65)C2)C1` [VINBLASTINE], the half-maximal inhibitory concentration (IC50) in assay [1] amounted to 17 nM; in assay [2] it was 1 nM; in assay [4] it was 27 nM; in assay [5], 0.79 nM.
Regarding `CC[C@H](C)[C@H](NC(=O)[C@H]1CCCCN1C)C(=O)N(COC(=O)CC(C)C)[C@H](C[C@@H](OC(C)=O)c1nc(C(=O)N[C@@H](Cc2ccccc2)C[C@H](C)C(=O)O)cs1)C(C)C` [TUBULYSIN D], the IC50 in assay [1] was 0.013 nM; in assay [2], 0.0047 nM; in assay [3] it was 1700 nM; in assay [4], 0.0031 nM; in assay [5] it was 0.67 nM.
`CC[C@H](C)[C@H](NC(=O)[C@H]1CCCCN1C)C(=O)N[C@H](C[C@H](OC(C)=O)c1nc(C(=O)N[C@@H](Cc2ccccc2)C[C@H](C)C(=O)O)cs1)C(C)C` [11-EPI-TUBULYSIN D]: the IC50 in assay [1] was 43 nM; in assay [2], 3.1 nM; in assay [3], 1400 nM; in assay [4], 13 nM; in assay [5] it was 280 nM.
As for `CC[C@H](C)[C@H](NC(=O)[C@H]1CCCCN1C)C(=O)N[C@@H](C[C@H](OC(C)=O)c1nc(C(=O)N[C@@H](Cc2ccccc2)C[C@H](C)C(=O)O)cs1)C(C)C`, the IC50 was > 10000 nM in assay [1]; 3600 nM in assay [2]; 6300 nM in assay [3]; > 10000 nM in assay [4]; > 10000 nM in assay [5].
